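In this assay, cells in 96-well plates receive the compound at five concentrations for 48 hours. Endpoints are linearly interpolated between the surrounding concentrations. GI50 marks 50% less growth.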 Calls of active or inactive are those of the source. Rule as the data show it: active = GI50 up to about 1.1 µM and inactive = higher.
Experiments:
Test in all cases: DTP human tumour cell line panel, 48 h
A498 = tested on: A498
A549 = tested on: A549
CAKI-1 = tested on: CAKI-1
CCRF-CEM = tested on: CCRF-CEM
COLO 205 = tested on: COLO 205
DLD-1 = tested on: DLD-1
DMS-114 = tested on: DMS-114
DMS-273 = tested on: DMS-273
EKVX = tested on: EKVX
HCC 2998 = tested on: HCC 2998
HCT-116 = tested on: HCT-116
HCT-15 = tested on: HCT-15
HL-60 = tested on: HL-60
HOP-18 = tested on: HOP-18
HOP-62 = tested on: HOP-62
HOP-92 = tested on: HOP-92
HT-29 = tested on: HT-29
IGROV-1 = tested on: IGROV-1
K562 = tested on: K562
KM-20L2 = tested on: KM-20L2
LOX IMVI = tested on: LOX IMVI
M19-MEL = tested on: M19-MEL
MCF7 = tested on: MCF7
MOLT-4 = tested on: MOLT-4
Malme-3M = tested on: Malme-3M
NCI-H23 = tested on: NCI-H23
NCI-H460 = tested on: NCI-H460
NCI-H522 = tested on: NCI-H522
NCI/ADR-RES = tested on: NCI/ADR-RES
OVCAR-3 = tested on: OVCAR-3
OVCAR-4 = tested on: OVCAR-4
OVCAR-5 = tested on: OVCAR-5
OVCAR-8 = tested on: OVCAR-8
RPMI-8226 = tested on: RPMI-8226
RXF 393 = tested on: RXF 393
SF-268 = tested on: SF-268
SF-295 = tested on: SF-295
SF-539 = tested on: SF-539
SK-MEL-28 = tested on: SK-MEL-28
SK-MEL-2 = tested on: SK-MEL-2
SK-MEL-5 = tested on: SK-MEL-5
SK-OV-3 = tested on: SK-OV-3
SN12C = tested on: SN12C
SNB-19 = tested on: SNB-19
SNB-75 = tested on: SNB-75
SNB-78 = tested on: SNB-78
SW-620 = tested on: SW-620
U-251 = tested on: U-251
UACC-257 = tested on: UACC-257
UACC-62 = tested on: UACC-62
UO-31 = tested on: UO-31
XF498 = tested on: XF498
786-0 = tested on: 786-0
ACHN = tested on: ACHN
KM12 = tested on: KM12
LXFL 529 = tested on: LXFL 529
M14 = tested on: M14
NCI-H226 = tested on: NCI-H226
SR = tested on: SR
TK-10 = tested on: TK-10

O=C(O)C1Cc2c([nH]c3ccccc23)C=N1 (stereo not given)
GI50 (A498): > 100 µM (inactive) | GI50 (A549): > 100 µM (inactive) | GI50 (CAKI-1): > 100 µM (inactive) | GI50 (CCRF-CEM): > 100 µM (inactive) | GI50 (COLO 205): > 100 µM (inactive) | GI50 (DLD-1): > 100 µM (inactive) | GI50 (DMS-114): > 100 µM (inactive) | GI50 (DMS-273): > 100 µM (inactive) | GI50 (EKVX): > 100 µM (inactive) | GI50 (HCC 2998): > 100 µM (inactive) | GI50 (HCT-116): > 100 µM (inactive) | GI50 (HCT-15): > 100 µM | GI50 (HL-60): > 100 µM (inactive) | GI50 (HOP-18): 30.3 µM (inactive) | GI50 (HOP-62): > 100 µM (inactive) | GI50 (HOP-92): > 74.1 µM (inactive) | GI50 (HT-29): > 100 µM (inactive) | GI50 (IGROV-1): > 100 µM (inactive) | GI50 (K562): > 100 µM (inactive) | GI50 (KM-20L2): > 100 µM (inactive) | GI50 (LOX IMVI): > 100 µM (inactive) | GI50 (M19-MEL): > 100 µM (inactive) | GI50 (MCF7): > 100 µM (inactive) | GI50 (MOLT-4): > 100 µM (inactive) | GI50 (Malme-3M): > 100 µM (inactive) | GI50 (NCI-H23): > 100 µM (inactive) | GI50 (NCI-H460): > 100 µM (inactive) | GI50 (NCI-H522): > 100 µM (inactive) | GI50 (NCI/ADR-RES): > 100 µM (inactive) | GI50 (OVCAR-3): > 100 µM (inactive) | GI50 (OVCAR-4): > 100 µM (inactive) | GI50 (OVCAR-5): > 100 µM (inactive) | GI50 (OVCAR-8): > 100 µM (inactive) | GI50 (RPMI-8226): > 100 µM (inactive) | GI50 (RXF 393): > 100 µM (inactive) | GI50 (SF-268): > 100 µM (inactive) | GI50 (SF-295): > 100 µM (inactive) | GI50 (SF-539): > 100 µM (inactive) | GI50 (SK-MEL-28): > 100 µM (inactive) | GI50 (SK-MEL-2): > 100 µM (inactive) | GI50 (SK-MEL-5): > 100 µM (inactive) | GI50 (SK-OV-3): > 100 µM (inactive) | GI50 (SN12C): > 100 µM (inactive) | GI50 (SNB-19): > 100 µM (inactive) | GI50 (SNB-75): > 100 µM (inactive) | GI50 (SNB-78): > 100 µM (inactive) | GI50 (SW-620): > 100 µM (inactive) | GI50 (U-251): > 100 µM (inactive) | GI50 (UACC-257): > 100 µM (inactive) | GI50 (UACC-62): > 100 µM (inactive) | GI50 (UO-31): > 100 µM (inactive) | GI50 (XF498): > 100 µM (inactive)

COCOCC[C@@H]1CC=CC(NC(=O)OCc2ccccc2)C1/C=C/C(=O)CCC1OCCO1 (stereo not given in full)
GI50 (786-0): 48.4 µM (inactive) | GI50 (A498): 71.1 µM (inactive) | GI50 (A549): 75.5 µM (inactive) | GI50 (ACHN): 36.6 µM (inactive) | GI50 (CAKI-1): 44.2 µM (inactive) | GI50 (CCRF-CEM): 17.3 µM (inactive) | GI50 (COLO 205): 20.7 µM (inactive) | GI50 (DLD-1): 17.1 µM (inactive) | GI50 (DMS-114): 29.9 µM (inactive) | GI50 (DMS-273): 23 µM (inactive) | GI50 (EKVX): 50.1 µM (inactive) | GI50 (HCC 2998): > 63.7 µM (inactive) | GI50 (HCT-116): 17.7 µM (inactive) | GI50 (HCT-15): 16.4 µM | GI50 (HL-60): 18.5 µM (inactive) | GI50 (HOP-18): 34.3 µM (inactive) | GI50 (HOP-62): > 79.8 µM (inactive) | GI50 (HOP-92): > 54.8 µM (inactive) | GI50 (HT-29): 38.9 µM (inactive) | GI50 (IGROV-1): 56.6 µM (inactive) | GI50 (K562): 32.1 µM (inactive) | GI50 (KM-20L2): 34.9 µM (inactive) | GI50 (KM12): 18.8 µM (inactive) | GI50 (LOX IMVI): 18.5 µM (inactive) | GI50 (LXFL 529): 22.4 µM (inactive) | GI50 (M14): 29.5 µM (inactive) | GI50 (M19-MEL): 19.1 µM (inactive) | GI50 (MOLT-4): 10.5 µM (inactive) | GI50 (Malme-3M): 98.2 µM (inactive) | GI50 (NCI-H226): 46.7 µM (inactive) | GI50 (NCI-H23): 37.6 µM (inactive) | GI50 (NCI-H460): 38.6 µM (inactive) | GI50 (NCI-H522): 16.4 µM (inactive) | GI50 (OVCAR-3): 27.2 µM (inactive) | GI50 (OVCAR-4): 29 µM (inactive) | GI50 (OVCAR-5): > 72.8 µM (inactive) | GI50 (OVCAR-8): 19.1 µM (inactive) | GI50 (RPMI-8226): 26.1 µM (inactive) | GI50 (RXF 393): 29.7 µM (inactive) | GI50 (SF-268): 34 µM (inactive) | GI50 (SF-295): 48.1 µM (inactive) | GI50 (SF-539): 25.6 µM (inactive) | GI50 (SK-MEL-28): 42.1 µM (inactive) | GI50 (SK-MEL-2): 25.4 µM (inactive) | GI50 (SK-MEL-5): 55.2 µM (inactive) | GI50 (SK-OV-3): 54.5 µM (inactive) | GI50 (SN12C): 25.2 µM (inactive) | GI50 (SNB-19): > 100 µM (inactive) | GI50 (SNB-75): 28.8 µM (inactive) | GI50 (SNB-78): 48.1 µM (inactive) | GI50 (SR): 3.79 µM (inactive) | GI50 (SW-620): 22.8 µM (inactive) | GI50 (TK-10): 46.8 µM (inactive) | GI50 (U-251): 25.7 µM (inactive) | GI50 (UACC-257): 25.4 µM (inactive) | GI50 (UACC-62): 25.5 µM (inactive) | GI50 (UO-31): 46.6 µM (inactive) | GI50 (XF498): 34.4 µM (inactive)

Reference: ChEMBL document CHEMBL1201862, “PubChem BioAssay data set” (2004)
